The conditions of series [1]: cited from earlier work.
Another series relates to tumor cell surface FR. Conditions: cited from earlier work.
In another series the test system is HOS-FRα tumors. As to the kind of experiment: subcutaneous HOS-FRα osteosarcoma xenograft, E2 CAR-T cells plus EC17. It is filed as in vivo. From the text:
A dosing regimen is shown in FIG. 21 which includes administration of about 5 million E2 CAR T cells at day −3; administration of EC17 at days 0, 3, 7, 14, 17, 21, 28, 31 and 35. Sequential escalating doses of EC17 will be administered under the following rules: If no CRS or neurotoxicity, advance through EC17 dose escalation as planned. If CRS grade≤2, administer all subsequent EC17 doses at die Sequence level that provoked the non-serious CRS in the stone cycle. If CRS grade>2, cancel further EC17 doses in the current Cycle, and commence all subsequent Cycles at the next highest Sequence below that which provoked the severe CRS (sCRS).
HOS-FRα (i.e. HOS-143b-LV-FRα) is a subclone of HOS-143B (ATCC CRL-8303) stably transfected with human FRα. HOS-143B was originally derived from a […] with osteosarcoma. The tumor cells were grown in folate-deficient RPMI 1640 with 5% FBS at 37° C. in a 5% CO2 humidified atmosphere. For the in-vivo study, tumor cells were inoculated subcutaneously at 1×10^6 cells per animal.
EGFRt-sorted anti-FITC E2 scFv-CAR T cells were frozen in a T-cell freezing medium. Upon arrival, vials of frozen CAR-T cells were immediately stored at −80° C. The CAR-T cells were quickly thawed at 37° C., washed twice with PBS, and used for animal injection at 6 million viable EGFRt+E2 CAR-T cells (CD4/CD8 at ~1:1) per animal. A small aliquot was taken on the day infusion for flow cytometric analysis of E2-CAR T-cell phenotypes.
EC17 dosing solutions were prepared when dosing began by weighing appropriate amounts of each compound, reconstituting in PBS, pH 7.4, sterile filtering the drug solution through a 0.22 pm PVDF syringe filter, and freezing aliquots for each day of dosing at −20° C.
All EC17 doses were given towards the end of day (3-4 PM) to allow potential CRS (cytokine release syndrome) to develop overnight.
Tumor growth, body weight, and overall assessment: Tumor sizes were monitored 2-3 times/week and body weight measured 2-3 times/week. On the days immediately after any EC17 dose, body weight measurement was taken daily and attention was given to gross animal morphology and behavior.
Euthanasia: Euthanasia was performed when mice had lost ≥20% of their weight, when tumors reached ≥1500 mm^3. Euthanasia was also performed if mice lost a lot of weight in a short duration (e.g., due to severe head-tilt), or when they approached moribund conditions per CRS grading system.
All animal care and use were performed according to NIH guidelines and in compliance with protocols approved by the Purdue University Animal Use and Care Committee. Female 4 to 5-week-old NOD/SCID gamma (NSG™) mice (stock number:005557) were purchased from The Jackson Faboratory (Bar Harbor, ME). Unless specifically indicated, all animals were maintained on a FA-deficient diet (TestDiet, St. Fouis, MO) upon arrival and throughout the study. To establish subcutaneous xenografts, MDA-MB-231 and HOS-FRα were implanted in the right flank region at 2.5×10^6 and 1×10^6 cells per animal, respectively. For intravenous xenografts, THP1-FRβ) cells were inoculated at 5×10^6 cells per animal. Subcutaneous tumors were measured 2-3 times per week with a caliper and calculated using the ellipsoidal formula (length×width2)/2. […] All animal doses (CAR-T cells, EC17, sodium fluorescein) were given intravenously.
In a therapeutic setting, EC17 CAM can be given before or after CAR-T cell injection. […]

The mark [2] stands for this setting: E2 CAR-T cells + EC17 5/100/1000 nmol/kg, M/Th/M (Cohort 2).

Entries after “also recorded” stand apart in the source; their conditions may differ.

In the case of `NC1=NC2N=CC(CNc3ccc(C(=O)N[C@@H](CCC(=O)NCCNC(=S)Nc4ccc(-c5c6ccc(=O)cc-6oc6cc(O)ccc56)c(C(=O)O)c4)C(=O)O)cc3)=NC2C(=O)N1` (stereo partly shown) [EC17, FA-(γ)-ethylenediamine-FITC], the “Maximum Tolerated Dose (MTD)” value in series [1] (EC17 doses of 3.1×10^−2 and 2.76×10^−1 mg/kg in previously-conducted human studies) is “not reached”. The “subjects with mild hypersensitivity reaction (most common adverse event)” value in series [1] (intravenous, single agent, 84 subjects) is recorded as 10.7%. In addition, in series [1] (intravenous, single agent), the overall tolerability entry is given as “well tolerated” and the serious adverse events entry is on record as “No serious adverse events were reported”. Also, in the series on tumor cell surface FR, the “affinity for tumor cell surface FR” value is “sub-nanomolar”. Further, in the series on HOS-FRα tumors (setting [2]), the “body weight loss or CRS” value is on record as “without body weight loss or CRS” and the “tumor volume of HOS-FRα tumors” value was “significant tumor regression”. Also, the “CAR-T cell expansion in whole blood (flow cytometry)” value in the series with HOS-FRα tumors (EC17 dose escalation M/Th/M, at euthanasia days 33 and 47) is reported as “EC17-dependent CAR-T cell expansion up to day 47 but higher on day 33”. Besides, the “CRS or body weight loss” value in the series with HOS-FRα tumors (~6 million E2-CAR-T cells + EC17 5/10/100, 5/30/300, 5/50/500 nmol/kg in Cycles 1-3, M/Th/M) is reported as “no CRS or body weight loss”. The HOS-FRα tumor growth entry in the series with HOS-FRα tumors (~6 million E2-CAR-T cells + EC17 5/10/100, 5/30/300, 5/50/500 nmol/kg in Cycles 1-3, M/Th/M, 6-day break) is on record as “significant delay in tumor growth within the first two cycles of treatment; also recorded: stopped responding to treatment in Cycle 3”.

The values are drawn from patent US20260263517A1, “THERAPEUTIC METHODS WITH TARGET-LINKED SMALL MOLECULES AND ANTI-TARGET CAR T CELLS” (Seattle Children's Hospital (dba Seattle Children's …, priority 2022, published 2026).
